From ChEMBL document CHEMBL5344417

Columns and labels:
[1] = molecular target: T1, Peroxisome proliferator-activated receptor gamma (Homo sapiens) (UniProt P37231); conditions: filed as agonist
T1 sequence (whole entry): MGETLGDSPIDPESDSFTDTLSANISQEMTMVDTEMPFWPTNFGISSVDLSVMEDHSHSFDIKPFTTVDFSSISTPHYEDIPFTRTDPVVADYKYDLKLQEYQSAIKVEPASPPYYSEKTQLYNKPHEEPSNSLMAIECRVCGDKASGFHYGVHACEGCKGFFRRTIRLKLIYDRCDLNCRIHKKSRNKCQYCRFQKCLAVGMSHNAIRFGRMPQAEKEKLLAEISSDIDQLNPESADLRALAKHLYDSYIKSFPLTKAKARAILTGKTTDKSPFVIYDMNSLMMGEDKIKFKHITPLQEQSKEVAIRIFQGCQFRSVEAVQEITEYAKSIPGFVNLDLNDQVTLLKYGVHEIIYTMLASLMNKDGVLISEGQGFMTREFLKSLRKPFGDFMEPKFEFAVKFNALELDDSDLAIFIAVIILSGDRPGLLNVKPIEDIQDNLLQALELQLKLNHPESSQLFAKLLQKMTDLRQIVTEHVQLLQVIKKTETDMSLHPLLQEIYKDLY

[2] = molecular target: T2, Peroxisome proliferator-activated receptor alpha (Homo sapiens) (UniProt Q07869); conditions: filed as agonist
T2 sequence (whole entry): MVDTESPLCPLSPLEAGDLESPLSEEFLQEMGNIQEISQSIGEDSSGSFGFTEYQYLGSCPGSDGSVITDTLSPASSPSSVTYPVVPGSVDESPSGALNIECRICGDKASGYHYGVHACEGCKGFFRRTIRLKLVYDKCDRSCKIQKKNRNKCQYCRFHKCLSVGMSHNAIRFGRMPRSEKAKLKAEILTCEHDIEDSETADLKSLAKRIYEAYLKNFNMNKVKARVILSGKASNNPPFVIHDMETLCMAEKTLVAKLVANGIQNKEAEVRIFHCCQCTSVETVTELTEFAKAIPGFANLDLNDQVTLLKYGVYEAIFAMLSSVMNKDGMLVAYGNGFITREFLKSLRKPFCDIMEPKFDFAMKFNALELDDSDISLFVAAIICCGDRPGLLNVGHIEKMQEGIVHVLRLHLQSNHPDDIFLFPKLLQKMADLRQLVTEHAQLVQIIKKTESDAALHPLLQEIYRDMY
Description: Binding affinity to recombinant PPAR alpha LBD (unknown origin) expressed in Escherichia coli BL21 assessed as melting temperature by differential scanning calorimetry analysis (Rvb = 47.45 degreeC)

Row | Tm [1] [°C] | Tm [2] [°C] | SMILES
1 | 53 |  | CN(CCOc1ccc(CC2SC(=O)NC2=O)cc1)c1ccccn1 (configuration not stated)
2 |  | 50 | Cc1cccc(Nc2cc(Cl)nc(SCC(=O)O)n2)c1C
